# Laboratory results taken from patent publication US8835428B2, “Diacylglycerol acyltransferase inhibitors” (Piramal Enterprises Limited, priority 2008, dated 2014).
# Biological target: T1, hDGAT1 (Homo sapiens, UniProt O75907)
# T1 construct: host or cells: Sf9 insect cells (baculovirus); microsomal preparation
# T1 sequence (O75907 1-488): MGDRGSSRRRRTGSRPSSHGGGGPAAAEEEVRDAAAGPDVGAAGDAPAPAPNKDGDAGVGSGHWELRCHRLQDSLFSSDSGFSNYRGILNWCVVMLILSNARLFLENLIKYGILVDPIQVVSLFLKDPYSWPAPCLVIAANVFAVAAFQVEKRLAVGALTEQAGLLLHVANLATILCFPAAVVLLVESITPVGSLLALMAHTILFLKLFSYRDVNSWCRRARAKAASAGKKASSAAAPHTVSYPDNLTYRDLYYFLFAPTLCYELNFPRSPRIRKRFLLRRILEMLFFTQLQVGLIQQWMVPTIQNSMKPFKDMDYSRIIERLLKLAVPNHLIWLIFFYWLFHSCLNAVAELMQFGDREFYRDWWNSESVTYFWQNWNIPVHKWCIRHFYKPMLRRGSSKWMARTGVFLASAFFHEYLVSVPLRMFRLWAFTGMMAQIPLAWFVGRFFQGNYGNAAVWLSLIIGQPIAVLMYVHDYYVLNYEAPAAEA
# Test: In-vitro DGAT1 assay (hDGAT1 microsomes from Sf9 cells, 14C oleoyl CoA, triglyceride formation)
# Type: biochemical
# Conditions: At 1 μM
# Outline: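 Human DGAT1 in baculovirus-infected Sf9 microsomes (2.5–10 μg), [14C]oleoyl-CoA with 409.5, 1228.5 or 1638 μM 1,2-dioleoyl-sn-glycerol, Tris-HCl pH 7.4 buffer with BSA. Compounds screened at 10, 5 and 1 μM in duplicate. Reaction 10 min at 37 °C; heptane-extracted [14C]triglyceride counted by scintillation.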
row,inhibition at 1 µM [%],SMILES
1,0 to 50,"COC(=O)[C@H](NC(=O)c1cc(-c2ccc(NC(=O)Nc3ccccc3F)cc2)no1)C(C)C [Example 257, (R)-Methyl 2-(3-(4-(3-(2-fluorophenyl)ureido)phenyl)isoxazole-5-carboxamido)-3-methylbutanoate]"
2,50 to 75,"CC(C)[C@@H](NC(=O)c1cc(-c2ccc(NC(=O)Nc3ccccc3F)cc2)no1)C(=O)O [Example 258, (R)-2-(3-(4-(3-(2-Fluorophenyl)ureido)phenyl)isoxazole-5-carboxamido)-3-methylbutanoic acid]"
3,50 to 75,"COC(=O)[C@H]1CCCN1C(=O)c1cc(-c2ccc(NC(=O)Nc3ccccc3F)cc2)no1 [Example 259, (R)-Methyl 1-(3-(4-(3-(2-fluorophenyl)ureido)phenyl)isoxazole-5-carbonyl)pyrrolidine-2-carboxylate]"
4,50 to 75,"O=C(Nc1ccc(-c2cc(C(=O)N3CCC[C@@H]3C(=O)O)on2)cc1)Nc1ccccc1F [Example 260, (R)-1-(3-(4-(3-(2-Fluorophenyl)ureido)phenyl)isoxazole-5-carbonyl) pyrrolidine-2-carboxylic acid]"
5,50 to 75,"COC(=O)[C@@H]1CCCN1C(=O)c1cc(-c2ccc(NC(=O)Nc3ccccc3F)cc2)no1 [Example 261, (S)-Methyl 1-(3-(4-(3-(2-fluorophenyl)ureido)phenyl)isoxazole-5-carbonyl)pyrrolidine-2-carboxylate]"
6,50 to 75,"O=C(Nc1ccc(-c2cc(C(=O)N3CCC[C@H]3C(=O)O)on2)cc1)Nc1ccccc1F [Example 262, (S)-1-(3-(4-(3-(2-Fluorophenyl)ureido)phenyl)isoxazole-5-carbonyl) pyrrolidine-2-carboxylic acid]"
7,0 to 50,"COC(=O)c1ccc(NC(=O)Nc2ccc(-c3cc(C(=O)NC(C(=O)OC)C(C)C)on3)cc2)cc1 (stereo not shown) [Example 283, Methyl 4-(3-(4-(5-(1-methoxy-3-methyl-1-oxobutan-2-ylcarbamoyl)isoxazol-3-yl)phenyl)ureido)benzoate]"
8,75 to 100,"CC(C)C(NC(=O)c1cc(-c2ccc(NC(=O)Nc3ccc(OC(F)(F)F)cc3Cl)cc2)no1)C(=O)O (stereo not shown) [Example 287, 2-(3-(4-(3-(2-chloro-4-(trifluoromethoxy)phenyl)ureido)phenyl)isoxazole-5-carboxamido)-3-methylbutanoic acid]"

# Same assay, conditions: At 5 μM
row,inhibition at 5 µM [%],SMILES
1,50 to 75,"Cc1ccc(NC(=O)Nc2ccc(-c3cc(C(=O)NCCCC(=O)O)on3)cc2)cc1 [Example 256, 4-(3-(4-(3-p-Tolylureido)phenyl)isoxazole-5-carboxamido)butanoic acid]"
2,0 to 50,"COC(=O)C(NC(=O)c1cc(-c2ccc(NC(=O)NS(=O)(=O)c3ccccc3C)cc2)no1)C(C)C (stereo not shown) [Example 263, Methyl 3-methyl-2-(3-(4-(3-(o-tolylsulfonyl)ureido)phenyl)isoxazole-5-carboxamido)butanoate]"
3,0 to 50,"Cc1ccccc1S(=O)(=O)NC(=O)Nc1ccc(-c2cc(C(=O)NC(C(=O)O)C(C)C)on2)cc1 (stereo not shown) [Example 264, 3-Methyl-2-(3-(4-(3-(o-tolylsulfonyl)ureido)phenyl)isoxazole-5-carboxamido)butanoic acid]"
4,50 to 75,"COC(=O)[C@@H](NC(=O)c1cc(-c2ccc(NC(=O)Nc3cccc(C)c3)cc2)no1)C(C)C [Example 265, (S)-methyl 3-methyl-2-(3-(4-(3-m-tolylureido)phenyl)isoxazole-5-carboxamido)butanoate]"
5,75 to 100,"Cc1cccc(NC(=O)Nc2ccc(-c3cc(C(=O)N[C@H](C(=O)O)C(C)C)on3)cc2)c1 [Example 266, (S)-3-methyl-2-(3-(4-(3-m-tolylureido)phenyl)isoxazole-5-carboxamido)butanoic acid]"
6,0 to 50,"COC(=O)[C@@H](NC(=O)c1cc(-c2ccc(NC(=S)Nc3cccc(F)c3)cc2)no1)C(C)C [Example 267, (S)-methyl 2-(3-(4-(3-(3-fluorophenyl)thioureido)phenyl)isoxazole-5-carboxamido)-3-methylbutanoate]"
7,50 to 75,"CC(C)[C@H](NC(=O)c1cc(-c2ccc(NC(=S)Nc3cccc(F)c3)cc2)no1)C(=O)O [Example 268, (S)-2-(3-(4-(3-(3-fluorophenyl)thioureido)phenyl)isoxazole-5-carboxamido)-3-methylbutanoic acid]"
8,0 to 50,"COC(=O)[C@@H](NC(=O)c1cc(-c2ccc(NC(=S)Nc3ccccc3F)cc2)no1)C(C)C [Example 269, (S)-methyl 2-(3-(4-(3-(2-fluorophenyl)thioureido)phenyl)isoxazole-5-carboxamido)-3-methylbutanoate]"
9,50 to 75,"CC(C)[C@H](NC(=O)c1cc(-c2ccc(NC(=S)Nc3ccccc3F)cc2)no1)C(=O)O [Example 270, (S)-2-(3-(4-(3-(2-fluorophenyl)thioureido)phenyl)isoxazole-5-carboxamido)-3-methylbutanoic acid]"
10,0 to 50,"COC(=O)[C@@H](NC(=O)c1cc(-c2ccc(NC(=S)Nc3ccc(C)cc3)cc2)no1)C(C)C [Example 271, (S)-Methyl 3-methyl-2-(3-(4-(3-p-tolylthioureido)phenyl)isoxazole-5-carboxamido)butanoate]"
11,0 to 50,"COC(=O)[C@H](Cc1ccc(O)cc1)NC(=O)c1cc(-c2ccc(NC(=O)Nc3ccc(C)cc3)cc2)no1 [Example 272, (S)-Methyl 3-(4-hydroxyphenyl)-2-(3-(4-(3-p-tolylureido)phenyl)isoxazole-5-carboxamido)propanoate]"
12,50 to 75,"Cc1ccc(NC(=O)Nc2ccc(-c3cc(C(=O)N[C@@H](Cc4ccc(O)cc4)C(=O)O)on3)cc2)cc1 [Example 273, (S)-3-(4-Hydroxyphenyl)-2-(3-(4-(3-p-tolylureido)phenyl)isoxazole-5-carboxamido)propanoic acid]"
13,0 to 50,"COC(=O)[C@H](Cc1ccc(O)cc1)NC(=O)c1cc(-c2ccc(NC(=O)Nc3ccccc3F)cc2)no1 [Example 274, (S)-Methyl 2-(3-(4-(3-(2-fluorophenyl)ureido)phenyl)isoxazole-5-carboxamido)-3-(4-hydroxyphenyl)propanoate]"
14,0 to 50,"COC(=O)C(NC(=O)c1cc(-c2ccc(NC(=O)Nc3ccc(C(F)(F)F)cc3)cc2)no1)C(C)C (stereo not shown) [Example 275, Methyl 3-methyl-2-(3-(4-(3-(4-(trifluoromethyl)phenyl)ureido)phenyl)isoxazole-5-carboxamido)butanoate]"
15,75 to 100,"CC(C)C(NC(=O)c1cc(-c2ccc(NC(=O)Nc3ccc(C(F)(F)F)cc3)cc2)no1)C(=O)O (stereo not shown) [Example 276, 3-Methyl-2-(3-(4-(3-(4-(trifluoromethyl)phenyl)ureido)phenyl)isoxazole-5-carboxamido)butanoic acid]"
16,0 to 50,"COC(=O)C(NC(=O)c1cc(-c2ccc(NC(=O)Nc3cccc(C(F)(F)F)c3)cc2)no1)C(C)C (stereo not shown) [Example 277, Methyl 3-methyl-2-(3-(4-(3-(3-(trifluoromethyl)phenyl)ureido)phenyl)isoxazole-5-carboxamido)butanoate]"
17,75 to 100,"CC(C)C(NC(=O)c1cc(-c2ccc(NC(=O)Nc3cccc(C(F)(F)F)c3)cc2)no1)C(=O)O (stereo not shown) [Example 278, 3-Methyl-2-(3-(4-(3-(3-(trifluoromethyl)phenyl)ureido)phenyl)isoxazole-5-carboxamido)butanoic acid]"
18,0 to 50,"COC(=O)C(NC(=O)c1cc(-c2ccc(NC(=O)Nc3ccccn3)cc2)no1)C(C)C (stereo not shown) [Example 279, Methyl 3-methyl-2-(3-(4-(3-pyridin-2-ylureido)phenyl)isoxazole-5-carboxamido)butanoate]"
19,50 to 75,"CC(C)C(NC(=O)c1cc(-c2ccc(NC(=O)Nc3ccccn3)cc2)no1)C(=O)O (stereo not shown) [Example 280, 3-methyl-2-(3-(4-(3-pyridin-2-ylureido)phenyl)isoxazole-5-carboxamido)butanoic acid]"
20,0 to 50,"COC(=O)C(NC(=O)c1cc(-c2ccc(NC(=O)Nc3ccc(-c4cc(C(=O)NC(C(=O)OC)C(C)C)on4)cc3)cc2)no1)C(C)C (stereo not shown) [Example 281, 2-({3-[4-(3-{4-[5-(1-Methoxycarbonyl-2-methyl-propylcarbamoyl)-isoxazol-3-yl]-phenyl}-ureido)-phenyl]-isoxazol-5-carbonyl}-amino)-3-methyl-butyric acid methyl ester]"
21,0 to 50,"CC(C)C(NC(=O)c1cc(-c2ccc(NC(=O)Nc3ccc(-c4cc(C(=O)NC(C(=O)O)C(C)C)on4)cc3)cc2)no1)C(=O)O (stereo not shown) [Example 282, 2-({3-[4-(3-{4-[5-(1-Carboxy-2-methyl-propylcarbamoyl)-isoxazol-3-yl]-phenyl}-ureido)-phenyl]-isoxazol-5-carbonyl}-amino)-3-methyl-butyric acid]"
22,50 to 75,"COC(=O)C(NC(=O)c1cc(-c2ccc(NC(=O)Nc3ccc(F)cc3C)cc2)no1)C(C)C (stereo not shown) [Example 284, Methyl 2-(3-(4-(3-(4-fluoro-2-methylphenyl)ureido)phenyl)isoxazole-5-carboxamido)-3-methylbutanoate]"
23,75 to 100,"Cc1cc(F)ccc1NC(=O)Nc1ccc(-c2cc(C(=O)NC(C(=O)O)C(C)C)on2)cc1 (stereo not shown) [Example 285, 2-(3-(4-(3-(4-fluoro-2-methylphenyl)ureido)phenyl)isoxazole-5-carboxamido)-3-methylbutanoic acid]"
